# Source: US20180170776A1, “ANTI-MICROBIAL ADDITIVE FOR USE IN FLOWER VASE WATER” (Enhold B.V., priority 2008, published 2018)
# Assays:
# [1] = test system: bacterial contamination; test: Bacterial contamination after 7 days; format: cell-based; conditions: for CFU (bacterial contamination after 7 days): below 10 hardly or not contaminated, above 1,000 heavily contaminated, additions per litre of base solution (BZC 30 ppm, GOX 100 SRU); for effect on bacterial contamination (in words): summary of the table
# Method: (§1) was placed in a vase with 1 litre of solution. The solution was either tap water or an aqueous base solution containing 10 g/1 of a composition containing 94.66% glucose, 5% citric acid, 0.34% conventional biocides. […] The vases with flowers were placed under 12 per 24 hours of 1000 lux, at 20° C.
# [2] = test system: mixed bouquet of 12 flowers; test: Flower life of a mixed bouquet of cut flowers in a vase with 1 litre of solution; format: in vivo, Rosa, Chrysanthemum santini, Gerbera, Antirrhinum, Solidago; conditions: 1 litre solution, 20° C., 12 per 24 hours of 1000 lux, additions per litre of base solution (BZC 30 ppm, GOX 100 SRU)
# Method: as §1, with “A mixed bouquet of 12 flowers composed as follows: was placed” for “was placed”
substance,measurement,setting,value
benzalkonium chloride [BZC],CFU (bacterial contamination after 7 days),[1],900 1000 CFU/g stem
same,effect on bacterial contamination (in words),[1],strong effect
same,FL (flower life),[2],12.0 days
glucose oxidase [GOX],CFU (bacterial contamination after 7 days),[1],"4,400 1000 CFU/g stem"
same,effect on bacterial contamination (in words),[1],strong effect
same,FL (flower life),[2],12.7 days
